Experimental data from US11123314B2 (NATIONAL CANCER CENTER, priority 2017, dated 2021).

Legend:
[1] = Pancreatic cancer mouse model, body weight; conditions: oral once a day, 61 days; compared among experimental groups
Protocol: (§1) First, 6- to 8-week-old Balb/c-nu mice (Central Lab. Animal, Highland Heights, Ky., USA) were prepared to make a pancreatic cancer mouse model. In addition, Miapaca2 pancreatic cancer cell line was cultured at 5.0×10^6 cells, and subcutaneously injected into the prepared mice with a 1-ml syringe. The mice were bred for 2 weeks, and divided into four groups in total, with each group containing 6 mice. The four groups were used as a solvent control group (10% DMSO, 40% PEG, 50% PBS), a group in which 40 mg/kg/100 μl of gossypol is administered alone, a group in which 100 mg/kg/100 μl of phenformin is administered alone, and a group in which gossypol+phenformin are administered in combination, respectively. To each mouse group was orally administered once a day the solvent or the drug, and the mice were bred in the same environment for a total of 61 days.
(§2) While breeding the mice, body weights and tumor sizes in each mouse group were checked every 3 days and averaged. A size of the initial tumor after injection of pancreatic cancer cells was determined using a caliper. A tumor volume was calculated using the following Equation 1.

[2] = system: Miapaca2, Panc-1, or Aspc-1 cells; test: Intracellular ATP level (ATP Colorimetric/Fluorometric Analysis Kit); type: cell-based; conditions: gossypol 5 μM, phenformin 500 μM, alone or mixed; compared with control group with no drug treatment
Protocol: Then, an intracellular ATP level was checked with the ATP Colorimetric/Fluorometric Analysis Kit (BioVision, Milpitas, Calif., USA) according to the protocol provided by the manufacturer. The cultured cells were divided into 1×10^6 cells and 100 μl of ATP assay buffer was added thereto to dissolve the cells. Then, centrifugation was performed at 15,000×g for 2 minutes at 4° C., to separate only the supernatant. 2 to 50 μl of the separated supernatant was transferred to a 96-well plate, and then an ATP assay buffer was added to a final volume of 50 μl per well. Thereafter, an ATP reaction mixture containing 44 μl of ATP assay buffer, 2 μl of ATP probe, 2 μl of ATP converter, and 2 μl of developer mixture was added to the 96-well plate at 50 μl per well and mixing was performed.

[3] = system: normal epithelial cell line IMR90; test: Annexin V-FITC/PI apoptosis detection by flow cytometry in normal cells; conditions: gossypol 10 μM, phenformin 100 μM, alone or mixed; 24, 48 and 72 hours
Protocol: First, the normal epithelial cell line IMR90 was cultured. Then, the cultured cells were treated with a single drug of gossypol 10 μM or phenformin 100 μM, or a mixed drug obtained by mixing them, and culture was performed for 24, 48, and 72 hours in total. The medium was removed from the cultured cells, and the cultured cells were washed twice with cold PBS. Centrifugation was performed at 1,400 rpm for 3 minutes, and then a binding buffer solution was added thereto at a concentration of 1×10^6 cells/mL. […] of the buffer solution was transferred to a 5-mL culture tube, and 5 μl of each of Annexin V-FITC and propidium iodide (PI) was added thereto. The tube was slowly vortexed to perform mixing, and then incubated for 15 minutes in a dark room at room temperature. After the incubation, a binding buffer solution (400 μl) was added thereto and a level of increase in cell death was checked by flow cytometry.

[4] = system: pancreatic cancer cell lines Miapaca-2, Panc-1, Aspc-1, SNU-410, SNU-324, Bxpc-3; test: SRB assay, inhibitory effect of gossypol or phenformin alone on growth of pancreatic cancer cells; type: cell-based; conditions: for inhibitory effect on cell proliferation: 48 hours after treatment with the drug, applied alone; for proliferation of the cancer cells: gossypol or phenformin added alone to each type of the pancreatic cancer cells, SRB assay
Protocol: (§3) Specifically, each type of various pancreatic cancer cell lines, Miapaca-2, Panc-1, Aspc-1, SNU-410, SNU-324, and Bxpc-3 cells, was cultured, during which each type of cells was inoculated into a 96-well plate at a density of 5,000 to 20,000 cells/well depending on an amplification period of culture time. After inoculation, gossypol or phenformin was added to each well and incubated in a CO2 incubator for 24 hours. Then, the cells were fixed by adding 50% (w/v) cooled trichloroacetic acid (TCA) to each well so as to become a final concentration of 10%. The supernatant other than the fixed cells was removed and the plate was washed about five times with tap water and then air dried. After drying, 0.4% (w/v) sulforhodamine B buffer solution containing 1% acetic acid was added to each well, and the plate was left to stand at room temperature for 10 minutes so that the cells were stained. After staining the cells, the plate was washed 5 times with 1% acetic acid to remove unstained dye, and then air dried. The stained dye was immobilized with 10 mM trizma base, and then absorbance was measured at 515 nm using a plate reader.

[5] = system: Miapaca2 pancreatic cancer cell line; test: Pancreatic cancer mouse model (xenograft), tumor volume and weight; type: in vivo, Balb/c-nu mice; conditions: gossypol 40 mg/kg, phenformin 100 mg/kg, oral once a day, alone or combined; compared with solvent control
Protocol: as §1, §2

[6] = system: Miapaca2, Panc-1, or Aspc-1 cells; conditions: applied alone at low drug concentration (gossypol 5 or 10 μM; phenformin 100 or 500 μM)
Protocol: as §3
Specifically, Miapaca2, Panc-1, or Aspc-1 cells were cultured. Each type of the cultured cells was treated with a mixed drug obtained by mixing gossypol 5 μM and phenformin 100 μM, or gossypol 10 μM and phenformin 500 μM, and cultured in the same manner.

[7] = system: Miapaca2, Panc-1, CAPAN1, CAPAN2, ASPC-1, SNU-213, SNU-324, or BXPC-3 cells; test: SRB assay, combined treatment with gossypol, phenformin and anti-cancer agent (triple combination); type: cell-based; conditions: 48 hours; compared with group given gossypol or phenformin alone; gossypol 2.5 or 5 μM, phenformin 100 μM, irinotecan 1 μM
Protocol: Specifically, Miapaca2, Panc-1, CAPAN1, CAPAN2, ASPC-1, SNU-213, SNU-324, or BXPC-3 cells were cultured. Each type of the cultured cells was treated with gossypol, phenformin, or irinotecan alone, or with a mixed drug thereof. […] As a control group, an untreated group with no drug treatment was used, and a relative cell proliferation level in each drug-treated group was expressed and calculated as a percentage as compared with the control group.

Row | SMILES | body weights [1] | intracellular ATP level [2] | cell death over time in IMR90 normal cells [3] | inhibitory effect on cell proliferation [4] | proliferation of the cancer cells [4] | level of increase in tumor volume [5] | inhibition of cell growth [6] | proliferation level in pancreatic cancer cells [7]
1 | Cc1cc2c(C(C)C)c(O)c(O)c(C=O)c2c(O)c1-c1c(C)cc2c(C(C)C)c(O)c(O)c(C=O)c2c1O [gossypol] | not significantly different | decreased | significant increase in cell death is not exhibited | complete inhibitory effect on cell proliferation | significantly inhibited | somewhat decreased | significant inhibition of cell growth was not exhibited | –
2 | CCc1c2c(nc3ccc(OC(=O)N4CCC(N5CCCCC5)CC4)cc13)-c1cc3c(c(=O)n1C2)COC(=O)[C@]3(O)CC [irinotecan] | – | – | – | – | – | – | – | significantly decreased
3 | [H]/N=C(/N)N/C(=N/[H])NCCc1ccccc1 [phenformin] | – | decreased | significant increase in cell death is not exhibited | complete inhibitory effect on cell proliferation | significantly inhibited | somewhat decreased | significant inhibition of cell growth was not exhibited | –
